Data reported in ChEMBL document CHEMBL5584201, “Amphiphilic tribasic galactosamines potentiate rifampicin in Gram-negative bacteria at low Mg++/Ca++concentrations” (Bioorg Med Chem Lett, 2024).

Key:
Format in all cases: functional
Escherichia coli = test: Potentiation of rifampicin-induced antibacterial activity against Escherichia coli […] assessed as fold change in rifampicin MIC at 2 to 8 microg/ml in high concentration of Ca++ and Mg++ containing media by Mueller-Hinton broth based assay; details: dose 2-8 µg/ml
Acinetobacter baumannii [1] = test: Potentiation of rifampicin-induced antibacterial activity against multidrug resistant Acinetobacter baumannii AB031 assessed as fold change in rifampicin MIC at 1/4 MIC in low salt containing media by Mueller-Hinton broth based assay
Acinetobacter baumannii [2] = test: Potentiation of rifampicin-induced antibacterial activity against multidrug resistant Acinetobacter baumannii clinical isolate 92247 assessed as fold change in rifampicin MIC at 1/4 MIC in low salt containing media by Mueller-Hinton broth based assay
Acinetobacter baumannii [3] = test: Potentiation of rifampicin-induced antibacterial activity against Acinetobacter baumannii 92247 assessed as fold change in rifampicin MIC at 16 microg/ml in high concentration of Ca++ and Mg++ containing media by Mueller-Hinton broth based assay; details: dose 16 µg/ml
Pseudomonas aeruginosa [4] = test: Potentiation of rifampicin-induced antibacterial activity against Pseudomonas aeruginosa PA262 assessed as fold change in rifampicin MIC at 2 to 8 microg/ml in high concentration of Ca++ and Mg++ containing media by Mueller-Hinton broth based assay; details: dose 2-8 µg/ml
Pseudomonas aeruginosa [5] = test: Potentiation of rifampicin-induced antibacterial activity against Pseudomonas aeruginosa PAO1 assessed as fold change in rifampicin MIC at 2 to 8 microg/ml in high concentration of Ca++ and Mg++ containing media by Mueller-Hinton broth based assay; details: dose 2-8 µg/ml
Pseudomonas aeruginosa [6] = test: Potentiation of rifampicin-induced antibacterial activity against Pseudomonas aeruginosa PAO1 assessed as fold change in rifampicin MIC in low salt containing media by Mueller-Hinton broth based assay
Pseudomonas aeruginosa [7] = test: Potentiation of rifampicin-induced antibacterial activity against Pseudomonas aeruginosa PA262 assessed as rifampicin MIC at 2 to 8 microg/ml in high concentration of Ca++ and Mg++ containing media by Mueller-Hinton broth based assay; details: dose 2-8 µg/ml
Acinetobacter baumannii [8] = test: Potentiation of rifampicin-induced antibacterial activity against Acinetobacter baumannii ATCC 17978 assessed as rifampicin MIC at 2 to 8 microg/ml in high concentration of Ca++ and Mg++ containing media by Mueller-Hinton broth based assay; details: dose 2-8 µg/ml
Acinetobacter baumannii [9] = test: Potentiation of rifampicin-induced antibacterial activity against Acinetobacter baumannii 92247 assessed as rifampicin MIC at 16 microg/ml in high concentration of Ca++ and Mg++ containing media by Mueller-Hinton broth based assay; details: dose 16 µg/ml
Acinetobacter baumannii [10] = test: Potentiation of rifampicin-induced antibacterial activity against Acinetobacter baumannii ATCC 17978 assessed as fold change in rifampicin MIC at 16 microg/ml in high concentration of Ca++ and Mg++ containing media by Mueller-Hinton broth based assay; details: dose 16 µg/ml

Compound: CCCCCCCCO[C@@H]1O[C@H](CN)[C@H](N)[C@H](OCc2ccc3ccccc3c2)[C@H]1N
- fold change (FC) (Escherichia coli): 1
- fold change (FC) (Acinetobacter baumannii [1]): 64
- fold change (FC) (Acinetobacter baumannii [2]): 64
- fold change (FC) (Acinetobacter baumannii [3]): 32
- fold change (FC) (Pseudomonas aeruginosa [4]): 1
- fold change (FC) (Pseudomonas aeruginosa [5]): 1
- fold change (FC) (Pseudomonas aeruginosa [6]): 2
- MIC (Pseudomonas aeruginosa [7]): 8 µg/mL
- MIC (Acinetobacter baumannii [8]): 4 µg/mL
- MIC (Acinetobacter baumannii [9]): 16 µg/mL
- fold change (FC) (Acinetobacter baumannii [10]): 1
